Results on 8 compounds are retold here after PubChem BioAssay (NCI).

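Step 1: Grow cells in 96-well plates. Step 2: Expose to compound for 48 hours at 5 concentrations. Step 3: Interpolate endpoints linearly; if unreached, use highest concentration. The concentration for full growth arrest is given as TGI.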

Common to all, as to experiment: inhibition of tumour cell growth, NCI panel, 48 h
Assay [1] relates to ACHN renal.
Assay [2] relates to IGROV1 ovarian.
The subject of assay [3] is 786-0 renal.
For assay [4], the system named is HL-60(TB) leukemia.
For assay [5], the system named is HOP-62 NSCLC.
In assay [6] the test system is A498 renal.
Assay [7] relates to A549 NSCLC.
Assay [8] deals with MDA-MB-435.
In assay [9] the test system is CCRF-CEM leukemia.
For assay [10], the system named is CAKI-1 renal.

Consider `COC(=O)C[C@H](CCSC)NC(=O)C[C@H](CCSC)NC(=O)C[C@H](CCSC)NC(=O)OC(C)(C)C`, for which the TGI was greater than 100 µM in assay [1]; greater than 100 µM in assay [2]; greater than 100 µM in assay [3]; greater than 100 µM in assay [4]; greater than 100 µM in assay [5]; 46.4 µM in assay [6]. In addition, the TGI in assay [7], in assay [8], in [9] and in assay [10] was greater than 100 µM each time.

With `COc1ccc(C2NC(=O)Nc3c2c(=O)oc2c3ccc3ccccc32)cc1` (stereo not given), the TGI in [1], in [2], in assay [3], in [4], in assay [5] and in [6] was greater than 100 µM in each case. Besides, the TGI in assay [7], in assay [8], in assay [9] and in assay [10] was greater than 100 µM in each case.

As to `C/C(=C\CNc1nc(Cl)nc2nc[nH]c12)CO`, the TGI in [1], in assay [2], in [3], in [4], in [5] and in assay [6] was greater than 100 µM each time. The TGI in assay [7], in assay [8], in assay [9] and in assay [10] was greater than 100 µM in each case.

As for `COC1=CC(=O)c2c(cc(COP(=O)(N(C)CCBr)N(C)CCBr)n2C)C1=O`, the TGI in assay [1] was 0.492 µM; in [2], 19.2 µM; in assay [3], 2.87 µM; in assay [4], greater than 100 µM; in assay [5] it was 5.23 µM; in assay [6], 6.12 µM. In addition, the TGI was found to be 7.18 µM in assay [7], 2.35 µM in [8], 19 µM in assay [9] and 2.26 µM in assay [10].

Regarding `Cn1c(=O)c2sc3cc4c(cc3c2c2ccccc21)sc1c(=O)n(C)c2ccccc2c14`, the TGI in assay [1] is 54.8 µM; in assay [2], greater than 100 µM; in assay [3] it was greater than 100 µM; in assay [4], greater than 100 µM; in assay [5], 42.3 µM; in assay [6], greater than 100 µM. The TGI in assay [7], in assay [8], in [9] and in [10] was greater than 100 µM throughout.

On to `C=CCn1c(=O)c2ccccc2[n+]2c(-c3cccc([N+](=O)[O-])c3)csc12`, for which the TGI was greater than 100 µM in assay [1]; greater than 100 µM in assay [2]; greater than 100 µM in assay [3]; 58.2 µM in assay [4]; greater than 100 µM in assay [5]; greater than 100 µM in [6]. Moreover, the TGI in assay [7], in assay [8], in [9] and in assay [10] was greater than 100 µM throughout.

For the compound `Cc1nnc2sc(-c3ccc([N+](=O)[O-])o3)nn12`, the TGI is 23.2 µM in assay [1]; 29.1 µM in assay [2]; 22 µM in [3]; 8.58 µM in assay [4]; 28.5 µM in [5]; greater than 100 µM in assay [6]. Also, the TGI is greater than 100 µM in assay [7], 17.5 µM in assay [8], greater than 100 µM in [9] and 22.3 µM in assay [10].

Turning to `N#Cc1c(-c2ccc(Cl)cc2)cc(-c2nc3ccccc3[nH]2)nc1N`, the TGI in assay [1] turned out to be 45.2 µM; in [2], 22.2 µM; in assay [3], 23.3 µM; in [4], 58.7 µM; in assay [5] it was 38.5 µM; in assay [6], 22.6 µM. Also, the TGI in assay [7] is 20.9 µM; in [8] it was 18.8 µM; in [9] it was 45.3 µM; in [10], 46.6 µM.
